This is an account of results in ChEMBL document CHEMBL2440052, “Quinazolinecarboline alkaloid evodiamine as scaffold for targeting topoisomerase I and sirtuins” (Bioorg Med Chem, 2013).

pIC50: −log10 of the molar value. Activity calls are given as the source filed them. The rule behind the calls is not given here.

In one experiment the test system is HepG2. The experiment is described as follows: Cytotoxicity against human HepG2 cells at 15 uM after 72 hrs by MTT assay relative to control. Format: functional. Particulars: HepG2, 72 h, values are per cent of control. A general note: Tetrazolium assays rely on reduction of a dye to a coloured formazan, in cell work by metabolically active cells.
In another experiment the test system is MCF7. The experiment is described as follows: Cytotoxicity against human MCF7 cells at 15 uM after 72 hrs by MTT assay relative to control. Format: functional. The note with it: MCF7, 72 h, values are per cent of control.
A short description of experiment [1]: Cytotoxicity against human H460 cells after 72 hrs by MTT assay. Particulars: NCI-H460, 72 h. Format: functional, cell-based.
Experiment [2] addresses T1, NAD-dependent protein deacetylase sirtuin-1 (Homo sapiens) (UniProt Q96EB6).
T1 sequence (whole entry): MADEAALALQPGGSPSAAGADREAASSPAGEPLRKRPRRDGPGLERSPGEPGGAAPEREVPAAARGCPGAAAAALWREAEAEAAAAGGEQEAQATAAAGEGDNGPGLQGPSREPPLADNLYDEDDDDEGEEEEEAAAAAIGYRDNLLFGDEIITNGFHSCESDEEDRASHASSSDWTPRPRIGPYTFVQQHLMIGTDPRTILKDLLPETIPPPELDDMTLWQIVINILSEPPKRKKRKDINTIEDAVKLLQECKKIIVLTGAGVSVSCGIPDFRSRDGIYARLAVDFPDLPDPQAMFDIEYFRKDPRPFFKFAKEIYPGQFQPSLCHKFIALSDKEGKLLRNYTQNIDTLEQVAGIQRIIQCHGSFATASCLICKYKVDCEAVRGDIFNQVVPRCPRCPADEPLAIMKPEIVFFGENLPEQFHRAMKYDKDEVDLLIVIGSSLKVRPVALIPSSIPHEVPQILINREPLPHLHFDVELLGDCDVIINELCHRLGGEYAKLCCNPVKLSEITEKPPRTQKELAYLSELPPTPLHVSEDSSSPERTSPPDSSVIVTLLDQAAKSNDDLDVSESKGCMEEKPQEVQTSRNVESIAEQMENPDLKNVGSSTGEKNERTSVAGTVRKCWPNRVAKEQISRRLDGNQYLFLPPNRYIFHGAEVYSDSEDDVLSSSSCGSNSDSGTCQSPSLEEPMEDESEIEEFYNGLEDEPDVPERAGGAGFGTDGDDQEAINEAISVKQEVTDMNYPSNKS
The experiment is described as follows: Inhibition of recombinant GST-SIRT1 (unknown origin) using KI177 as substrate at 50 uM after 45 mins by fluorescence assay.

The target of experiment [3] is T2, NAD-dependent protein deacetylase sirtuin-2 (Homo sapiens) (UniProt Q8IXJ6).
T2 sequence (whole entry): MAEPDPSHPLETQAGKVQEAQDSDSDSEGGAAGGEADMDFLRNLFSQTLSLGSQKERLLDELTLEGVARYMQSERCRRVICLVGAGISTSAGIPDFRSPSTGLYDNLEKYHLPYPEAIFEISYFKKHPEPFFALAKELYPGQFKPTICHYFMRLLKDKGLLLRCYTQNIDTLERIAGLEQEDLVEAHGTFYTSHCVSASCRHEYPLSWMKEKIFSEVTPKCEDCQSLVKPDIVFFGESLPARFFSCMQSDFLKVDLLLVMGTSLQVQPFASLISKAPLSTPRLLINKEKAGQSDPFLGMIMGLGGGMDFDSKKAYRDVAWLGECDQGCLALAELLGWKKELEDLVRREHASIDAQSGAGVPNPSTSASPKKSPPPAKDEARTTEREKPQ
Put plainly: Inhibition of recombinant GST-SIRT2 (unknown origin) using KI179 as substrate at 200 uM after 45 mins by fluorescence assay.

For experiment [4], the target named is T3, NAD-dependent protein deacetylase sirtuin-3, mitochondrial (Homo sapiens) (UniProt Q9NTG7).
T3 sequence (whole entry): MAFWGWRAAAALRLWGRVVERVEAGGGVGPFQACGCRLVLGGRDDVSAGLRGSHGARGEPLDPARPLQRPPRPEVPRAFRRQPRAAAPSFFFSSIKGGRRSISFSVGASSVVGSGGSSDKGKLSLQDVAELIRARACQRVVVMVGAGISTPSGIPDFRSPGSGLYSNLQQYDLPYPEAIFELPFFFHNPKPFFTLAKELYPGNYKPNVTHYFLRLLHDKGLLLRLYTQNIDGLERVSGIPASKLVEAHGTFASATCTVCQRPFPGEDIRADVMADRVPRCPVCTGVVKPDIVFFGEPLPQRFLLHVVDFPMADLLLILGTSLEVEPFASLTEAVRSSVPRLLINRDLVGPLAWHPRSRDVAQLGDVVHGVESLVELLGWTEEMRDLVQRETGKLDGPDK
Put plainly: Inhibition of recombinant His-SIRT3 (unknown origin) using KI179 as substrate at 200 uM after 45 mins by fluorescence assay.

Experiment [5] has as its target T4, DNA topoisomerase 1 (Homo sapiens) (UniProt P11387).
T4 sequence (whole entry): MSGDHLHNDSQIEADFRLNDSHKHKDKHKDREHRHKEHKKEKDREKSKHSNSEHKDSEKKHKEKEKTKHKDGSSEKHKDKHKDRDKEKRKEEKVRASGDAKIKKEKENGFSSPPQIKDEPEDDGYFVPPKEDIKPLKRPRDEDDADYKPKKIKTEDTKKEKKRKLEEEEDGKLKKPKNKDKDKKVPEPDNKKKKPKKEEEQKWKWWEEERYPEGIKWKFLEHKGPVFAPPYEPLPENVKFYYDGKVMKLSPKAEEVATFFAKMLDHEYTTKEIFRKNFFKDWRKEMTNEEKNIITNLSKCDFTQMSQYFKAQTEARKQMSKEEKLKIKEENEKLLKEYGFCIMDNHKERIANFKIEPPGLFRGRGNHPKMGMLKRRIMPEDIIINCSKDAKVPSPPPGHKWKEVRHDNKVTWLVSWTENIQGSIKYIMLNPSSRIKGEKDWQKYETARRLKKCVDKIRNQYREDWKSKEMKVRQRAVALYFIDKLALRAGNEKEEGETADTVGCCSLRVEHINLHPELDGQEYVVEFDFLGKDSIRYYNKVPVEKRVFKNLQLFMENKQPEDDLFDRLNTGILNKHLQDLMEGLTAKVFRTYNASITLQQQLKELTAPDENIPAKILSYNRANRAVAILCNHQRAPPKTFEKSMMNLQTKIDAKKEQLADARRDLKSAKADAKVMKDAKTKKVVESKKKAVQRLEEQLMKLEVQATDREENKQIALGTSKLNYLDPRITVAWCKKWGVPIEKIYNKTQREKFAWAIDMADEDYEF
The experiment is described as follows: Inhibition of human recombinant topoisomerase 1-mediated DNA cleavage assessed as formation of nicked DNA from supercoiled pBR322 DNA up to 100 uM after 60 mins by agarose gel electrophoresis.

The target of experiment [6] is T2, NAD-dependent protein deacetylase sirtuin-2 (Homo sapiens). The experiment is described as follows: Inhibition of recombinant GST-SIRT2 (unknown origin) using KI179 as substrate at 168 uM after 45 mins by fluorescence assay.
For experiment [7], the target named is T4, DNA topoisomerase 1 (Homo sapiens). The experiment is described as follows: Inhibition of human recombinant topoisomerase 1-mediated relaxation of supercoiled pBR322 at 500 uM after 60 mins by agarose gel electrophoresis.
For experiment [8] the target is unchanged. The experiment is described as follows: Inhibition of human recombinant topoisomerase 1-mediated relaxation of supercoiled pBR322 at 50 to 100 uM after 60 mins by agarose gel electrophoresis.
The target of experiment [9] is T3, NAD-dependent protein deacetylase sirtuin-3, mitochondrial (Homo sapiens). The experiment is described as follows: Inhibition of recombinant His-SIRT3 (unknown origin) using KI179 as substrate at 168 uM after 45 mins by fluorescence assay.

Take `CN1c2ccccc2C(=O)N2[C@@H](C(=O)O)Cc3c([nH]c4ccccc34)[C@H]12`: the viability, % of control at 15 µM came out at 107% with HepG2 and 103% with MCF7. Moreover, the negative-log IC50 (pIC50) in [1] is under 4.52.

As for `CN1c2ccccc2C(=O)N2[C@H](C(=O)O)Cc3c([nH]c4ccccc34)[C@@H]12`, the inhibition stood at 26% in [2], 60% in experiment [3] and 61% in [4]. The viability, % of control at 15 µM with HepG2 worked out at 107%; in the experiment with MCF7 it was 128%. In experiment [1], this molecule showed a pIC50 of 4.22.

With `CN1c2ccccc2C(=O)N2CCc3c([nH]c4ccccc34)[C@@H]21` [EVODIAMINE], the inhibition in experiment [2] amounted to 1.1%; in [6], 58%; in experiment [9], 21%. In addition, the inhibition entry in experiment [5] and in experiment [8] was “inactive” throughout. Also, the viability, % of control at 15 µM in the experiment with HepG2 came to 76%; in the experiment on MCF7, 51%. Besides, in experiment [7], the inhibition entry was “Active”. The same molecule had a pIC50 in [1] of 4.88.

As to `CNC(=O)[C@@H]1Cc2c([nH]c3ccccc23)[C@H]2N(C)c3ccccc3C(=O)N12`, the inhibition stood at 6.4% in [2], 62% in experiment [3] and 26% in experiment [4]. In addition, the viability, % of control at 15 µM in the experiment on HepG2 was determined as 101%; in the experiment with MCF7 it was 94%. Further, the pIC50 in experiment [1] was 4.28.

Consider `CN1c2ccccc2C(=O)N2[C@@H](C(=O)N3CCCCC3)Cc3c([nH]c4ccccc34)[C@H]12`, for which the viability, % of control at 15 µM worked out at 75% in the experiment on HepG2 and 63% with MCF7. The pIC50 in experiment [1] was 5.07.

`CN1c2ccccc2C(=O)N2[C@H](C(=O)N3CCCCC3)Cc3c([nH]c4ccccc34)[C@@H]12`: the values for the inhibition in experiment [2] and in experiment [3] were 6.5% and 46%, respectively. The results for the viability, % of control at 15 µM with HepG2 and in the experiment with MCF7 were 110% and 85%, respectively. Moreover, in [1], the pIC50 is 4.31.

As to `COC(=O)[C@H]1Cc2c([nH]c3ccccc23)[C@@H]2N(C)c3ccccc3C(=O)N12`, the inhibition turned out to be 7.8% in experiment [2], 78% in experiment [3] and 17% in experiment [4]. The viability, % of control at 15 µM in the experiment on HepG2 came to 90%; in the experiment on MCF7, 96%. This molecule showed a pIC50 in experiment [1] of 4.62.

For the molecule `CN1c2ccccc2C(=O)N2CCc3c([nH]c4ccccc34)[C@H]21`, the inhibition in [2] was found to be 4.2%; in experiment [6], 71%; in [9], 20%. Besides, the inhibition entry in experiment [5] and in experiment [8] was “inactive” each time. The viability, % of control at 15 µM in the experiment on HepG2 is 69%; with MCF7 it was 44%. Moreover, the inhibition result in [7] is “Active”. Besides, in experiment [1], the pIC50 is 5.59.

On to `CN1c2ccccc2C(=O)N2[C@H](C(=O)N3CCOCC3)Cc3c([nH]c4ccccc34)[C@@H]12`, for which the inhibition in experiment [2] is 4.1%; in experiment [3], 36%. Further, the viability, % of control at 15 µM is 88% with HepG2 and 131% in the experiment on MCF7. This molecule also showed a pIC50 in experiment [1] of 4.14.

Regarding `CN1c2ccccc2C(=O)N2[C@H](C(=O)N3CCSCC3)Cc3c([nH]c4ccccc34)[C@@H]12`, the results for the inhibition in [2] and in experiment [3] were 8.2% and 35%, respectively. Further, the viability, % of control at 15 µM with HepG2 was determined as 90%; with MCF7, 103%. This molecule had a pIC50 in [1] of 4.06.

Regarding `CN1CCN(C(=O)[C@@H]2Cc3c([nH]c4ccccc34)[C@H]3N(C)c4ccccc4C(=O)N23)CC1`, the inhibition in experiment [2] came to 5.3%; in experiment [3], 43%. For the same molecule, the results for the viability, % of control at 15 µM in the experiment with HepG2 and in the experiment on MCF7 were 83% and 68%, respectively. For the same molecule, the pIC50 in experiment [1] is 4.18.

On to `CN1CCN(C(=O)[C@H]2Cc3c([nH]c4ccccc34)[C@@H]3N(C)c4ccccc4C(=O)N23)CC1`, for which the values for the viability, % of control at 15 µM in the experiment on HepG2 and in the experiment with MCF7 were 91% and 74%, respectively. The pIC50 in experiment [1] is 4.26.

For `CN1c2ccccc2C(=O)N2[C@@H](C(=O)N3CCOCC3)Cc3c([nH]c4ccccc34)[C@H]12`, the viability, % of control at 15 µM turned out to be 94% with HepG2 and 72% in the experiment on MCF7. In experiment [1], this molecule showed a pIC50 of 4.23.

Consider `CNC(=O)[C@H]1Cc2c([nH]c3ccccc23)[C@@H]2N(C)c3ccccc3C(=O)N12`, for which the viability, % of control at 15 µM with HepG2 came to 101%; with MCF7, 108%. In [1], this molecule had a negative-log IC50 (pIC50) of under 4.52.

For `CN1c2ccccc2C(=O)N2[C@@H](C(=O)N3CCSCC3)Cc3c([nH]c4ccccc34)[C@H]12`, the viability, % of control at 15 µM came to 89% in the experiment on HepG2 and 105% in the experiment on MCF7. In experiment [1], this molecule had a pIC50 of under 4.00.

In the case of `COC(=O)[C@@H]1Cc2c([nH]c3ccccc23)[C@H]2N(C)c3ccccc3C(=O)N12`, the figures for the inhibition in experiment [2], in [3] and in experiment [4] were 3.3%, 80% and 21%, respectively. Moreover, the figures for the viability, % of control at 15 µM with HepG2 and with MCF7 were 101% and 90%, respectively. The same molecule gave a pIC50 in experiment [1] of 4.46.

One may read the pIC50 as the negative decadic logarithm of the IC50, by convention in mol/L. Low readings indicate a high IC50, high ones a low IC50. For orientation: inhibition means the relative decrease from the control value, in per cent.
